Measured values from patent publication US20230416203A1, “POTENT AND SELECTIVE INHIBITORS OF THE CALCIUM-ACTIVATED POTASSIUM CHANNEL, KCA3.1, FOR USE AS PLATFORM THERAPEUTICS” (priority 2020, published 2023).

Test: Two-week non-GLP toxicology in mice (clinical signs, body weight, body weight gain, food consumption, hematology, clinical chemistry, organ weights, histopathology)
[1] = 25 and 50 mg/kg BID, 2 weeks, mice
[2] = G2 25 mg/kg/BID oral, Treatment Day 1
[3] = G2 25 mg/kg/BID oral, Treatment Day 4
[4] = G2 25 mg/kg/BID oral, Treatment Day 8
[5] = G2 25 mg/kg/BID oral, Treatment Day 11
[6] = G2 25 mg/kg/BID oral, Treatment Day 14
[7] = G3 50 mg/kg/BID oral, Treatment Day 1
[8] = G3 50 mg/kg/BID oral, Treatment Day 4
[9] = G3 50 mg/kg/BID oral, Treatment Day 8
[10] = G3 50 mg/kg/BID oral, Treatment Day 11
[11] = G3 50 mg/kg/BID oral, Treatment Day 14
[12] = female mice, 25 mg/kg ROD oral, 2 weeks, mean
[13] = female mice, 25 mg/kg/BID oral, 2 weeks, mean
[14] = female mice, 50 mg/kg/BID oral, 2 weeks, mean

Protocol: Each group contained 6 mice. The animals were analyzed throughout the study, and blood and tissues were analyzed at the end of the study.

COC(=O)C1=CNC=C(C(=O)OC)C1c1ccc(F)c(C(F)(F)F)c1 [Compound 103, Dimethyl 4-(4-fluoro-3-(trifluoromethyl)phenyl)-1,4-dihydropyridine-3,5-dicarboxylate]
decrease in white blood cells (WBC) (25 mg/kg and 50 mg/kg treated male and female mice, statistically significant): up to 3.4 fold
Hematological assessment, other parameters [1]: No other toxicologically significant changes were detected
Histopathology analysis [1]: did not detect any differences with controls
Organ weights [1]: not altered
gross pathology [1]: no obvious gross pathology
Body weight of female mice, Mean [2]: 20.33
Body weight of male mice, Mean [2]: 18.30
Body weight of female mice, Mean [3]: 21.03
Body weight of male mice, Mean [3]: 17.65
Body weight of female mice, Mean [4]: 21.48
Body weight of male mice, Mean [4]: 19.12
Body weight of female mice, Mean [5]: 21.52
Body weight of male mice, Mean [5]: 18.95
Body weight of female mice, Mean [6]: 21.93
Body weight of male mice, Mean [6]: 19.27
Body weight of female mice, Mean [7]: 20.47
Body weight of male mice, Mean [7]: 18.75
Body weight of female mice, Mean [8]: 20.37
Body weight of male mice, Mean [8]: 18.63
Body weight of female mice, Mean [9]: 21.13
Body weight of male mice, Mean [9]: 19.52
Body weight of female mice, Mean [10]: 21.20
Body weight of male mice, Mean [10]: 19.32
Body weight of female mice, Mean [11]: 21.73
Body weight of male mice, Mean [11]: 19.85
Organ weights relative to body weight (%), Adrenals [12]: 0.038%
Organ weights relative to body weight (%), Brain [12]: 2.217%
Organ weights relative to body weight (%), Heart [12]: 0.990%
Organ weights relative to body weight (%), Kidneys [12]: 1.379%
Organ weights relative to body weight (%), Liver [12]: 6.436%
Organ weights relative to body weight (%), Ovaries [12]: 0.077%
Organ weights relative to body weight (%), Spleen [12]: 0.672*↑ %
Organ weights relative to body weight (%), Thymus [12]: 0.200%
Organ weights relative to body weight (%), U [12]: 0.321%
ALB [13]: 2.60*↓ g/dL
ALT [13]: 40.03 U/L
AST [13]: 84.12 U/L
BUN [13]: 19.24 mg/dL
Basophils [13]: 0.00
CREA [13]: 0.13 mg/dL
Eosinophils [13]: 0.00
GLU [13]: 153.02 mg/dL
HCT [13]: 28.87%
HGB [13]: 12.97 g/dL
LDLC [13]: 9.31 mg/dL
Lympthocytes [13]: 82.00
MCH [13]: 21.10*↓ pg
MCHC [13]: 44.93*↓ g/dL
MCV [13]: 46.97*↑ fL
Monocytes [13]: 1.00
Neutrophils [13]: 17.00
PLT [13]: 616.67 10^3/μl
RBC [13]: 6.15
Reticuloxyte Count [13]: 2.63
TBIL [13]: 0.12 mg/dL
TGL [13]: 48.73 mg/dL
TP [13]: 4.12 g/dL
Urea [13]: 41.23 mg/dL
WBC [13]: 3.73*↓ 10^3/μl
Food consumption, Average Feed Intake/Animal (female mice, 25 mg/kg/BID oral, treatment day 1 to 4): 9.4 g/animal
Body weight gain (%) (female mice, 25 mg/kg/BID oral, treatment day 1 to 4, mean): −3.53%
Food consumption, Average Feed Intake/Animal (female mice, 25 mg/kg/BID oral, treatment day 1 to 8): 12.8 g/animal
Body weight gain (%) (female mice, 25 mg/kg/BID oral, treatment day 1 to 8, mean): 4.49%
Food consumption, Average Feed Intake/Animal (female mice, 25 mg/kg/BID oral, treatment day 1 to 11): 10.3 g/animal
Body weight gain (%) (female mice, 25 mg/kg/BID oral, treatment day 1 to 11, mean): 3.54%
Food consumption, Average Feed Intake/Animal (female mice, 25 mg/kg/BID oral, treatment day 1 to 14): 9.5 g/animal
Body weight gain (%) (female mice, 25 mg/kg/BID oral, treatment day 1 to 14, mean): 5.27%
ALB [14]: 2.55*↓ g/dL
ALP [14]: 254.38 U/L
ALT [14]: 55.57 U/L
AST [14]: 92.78 U/L
BUN [14]: 22.71 mg/dL
Basophils [14]: 0.00
CREA [14]: 0.12 mg/dL
Eosinophils [14]: 0.00
GLU [14]: 165.87 mg/dL
HCT [14]: 28.73%
HGB [14]: 13.67 g/dL
LDLC [14]: 8.23 mg/dL
Lympthocytes [14]: 84.00
MCH [14]: 21.23 pg
MCHC [14]: 45.37*↓ g/dL
MCV [14]: 46.83*↑ fL
Monocytes [14]: 1.33
Neutrophils [14]: 14.67
PLT [14]: 733.00 10^3/μl
RBC [14]: 6.14
Reticuloxyte Count [14]: 2.67
TBIL [14]: 0.14 mg/dL
TGL [14]: 59.97 mg/dL
TP [14]: 3.89 g/dL
Urea [14]: 48.65 mg/dL
WBC [14]: 2.17*↓ 10^3/μl
Food consumption, Average Feed Intake/Animal (female mice, 50 mg/kg/BID oral, treatment day 1 to 4): 9.1 g/animal
Body weight gain (%) (female mice, 50 mg/kg/BID oral, treatment day 1 to 4, mean): −0.68%
Food consumption, Average Feed Intake/Animal (female mice, 50 mg/kg/BID oral, treatment day 1 to 8): 12.8 g/animal
Body weight gain (%) (female mice, 50 mg/kg/BID oral, treatment day 1 to 8, mean): 4.10%
Food consumption, Average Feed Intake/Animal (female mice, 50 mg/kg/BID oral, treatment day 1 to 11): 8.7 g/animal
Body weight gain (%) (female mice, 50 mg/kg/BID oral, treatment day 1 to 11, mean): 3.03%
Food consumption, Average Feed Intake/Animal (female mice, 50 mg/kg/BID oral, treatment day 1 to 14): 9.8 g/animal
